Experimental data reported in paper PMC9763329, “Targeting the transcription factor HES1 by L-menthol restores protein phosphatase 6 in keratinocytes in models of psoriasis” (Nature Communications, 2022).

Tests used:
Hes1 = target: T1, Hes1 (Mus musculus, UniProt P35428); assay: DARTS (pronase protection, anti-HES1 immunoblot); format: biochemical; conditions: primary mouse keratinocyte lysate; 30 min L-menthol then 20 min pronase, room temperature
T1 construct: endogenous Hes1 in primary mouse keratinocyte lysate, detected by anti-HES1 immunoblot
T1 sequence (P35428 1-282): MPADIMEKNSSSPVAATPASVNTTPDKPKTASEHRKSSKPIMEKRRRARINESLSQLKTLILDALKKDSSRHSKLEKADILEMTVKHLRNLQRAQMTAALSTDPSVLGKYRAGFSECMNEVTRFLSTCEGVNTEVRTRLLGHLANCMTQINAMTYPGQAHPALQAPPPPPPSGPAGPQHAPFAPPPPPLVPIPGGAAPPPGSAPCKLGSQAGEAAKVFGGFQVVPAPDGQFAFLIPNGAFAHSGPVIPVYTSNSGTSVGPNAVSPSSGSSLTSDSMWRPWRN

[1] = target: T2, HES1 (transcription factor hairy and enhancer of split 1) (Homo sapiens, UniProt Q14469); assay: microscale thermophoresis (Monolith NT.[…]); format: binding
T2 construct: Human HES1 in pET-28a(+), C-terminal 6xHis tag kept, E. coli BL21(DE3), nickel and size-exclusion purified
T2 sequence (Q14469 1-280): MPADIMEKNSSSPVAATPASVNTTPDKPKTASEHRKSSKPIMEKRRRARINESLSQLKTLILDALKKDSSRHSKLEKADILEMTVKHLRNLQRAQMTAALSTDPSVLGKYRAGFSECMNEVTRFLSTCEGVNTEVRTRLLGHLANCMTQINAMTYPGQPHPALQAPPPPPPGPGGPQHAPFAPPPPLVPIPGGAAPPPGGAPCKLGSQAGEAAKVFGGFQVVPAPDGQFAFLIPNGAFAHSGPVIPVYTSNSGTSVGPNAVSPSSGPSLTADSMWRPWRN

Kd [1]: 16.8 nM
Compound: CC(C)[C@@H]1CC[C@@H](C)C[C@H]1O [L-menthol]
DARTS (pronase protection, anti-HES1 immunoblot) (Hes1): interaction between HES1 and L-menthol was verified in HaCaT cells
